This note sets out measurements from patent US20250115598A1 (Anaxis Pharma Pty Ltd, priority 2021, published 2025).

The target of one experiment is human RIPK3 (Homo sapiens (Human), UniProt Q9Y572). In words: KINOMEscan binding assay, human RIPK3. Particulars: Table 21. As for the experimental part: (§1) Binding affinity of the test compounds for human MLKL (full length), mouse MLKL (full length), human RIPK1 and human RIPK3 was determined using the KINOMEscan™ technology developed by DiscoverX (USA; http://www.discoverx.com). The assay was conducted according to manufacturer instructions.
(§2) Kinase assays. For most assays, kinase-tagged T7 phage strains were grown in parallel in 24-well blocks in an E. coli host derived from the BL21 strain. E. coli were grown to log-phase and infected with T7 phage from a frozen stock (multiplicity of infection=0.4) and incubated with shaking at 32° C. until lysis (90-150 minutes). The lysates were centrifuged (6,000×g) and filtered (0.2 μm) to remove cell debris. The remaining kinases were produced in HEK-293 cells and subsequently tagged with DNA for qPCR detection. […] The liganded beads were blocked with excess biotin and washed with blocking buffer (SeaBlock (Pierce), 1% BSA, 0.05% Tween 20, 1 mM DTT) to remove unbound ligand and to reduce non-specific phage binding. […] All reactions were performed in polypropylene 384-well plates in a final volume of 20 μL. […] The kinase concentration in the eluates was measured by qPCR.
(§3) An 11-point 3-fold serial dilution of each test compound was prepared in 100% DMSO at 100× final test concentration and subsequently diluted to 1× in the assay (final DMSO concentration=1%). Most Kos were determined using a compound top concentration=30,000 nM.
(§4) KD for each test compound was calculated with a standard dose-response curve using the Hill equation (equation (1)): […]
(§5) The Hill Slope was set to −1.
(§6) Curves were fitted using a non-linear least square fit with the Levenberg-Marquardt algorithm.

Another experiment has as its target human RIPK1 (Homo sapiens (Human), UniProt Q13546). Briefly: KINOMEscan binding assay, human RIPK1. Particulars: Table 21. As for the experimental part: as §1, §2, §3, §4, §5, §6

The term Kd denotes the constant that tells how readily two partners part at equilibrium. The low end stands for a tighter complex, the high end for a looser complex.

Chain of human RIPK3 (Q9Y572 whole entry): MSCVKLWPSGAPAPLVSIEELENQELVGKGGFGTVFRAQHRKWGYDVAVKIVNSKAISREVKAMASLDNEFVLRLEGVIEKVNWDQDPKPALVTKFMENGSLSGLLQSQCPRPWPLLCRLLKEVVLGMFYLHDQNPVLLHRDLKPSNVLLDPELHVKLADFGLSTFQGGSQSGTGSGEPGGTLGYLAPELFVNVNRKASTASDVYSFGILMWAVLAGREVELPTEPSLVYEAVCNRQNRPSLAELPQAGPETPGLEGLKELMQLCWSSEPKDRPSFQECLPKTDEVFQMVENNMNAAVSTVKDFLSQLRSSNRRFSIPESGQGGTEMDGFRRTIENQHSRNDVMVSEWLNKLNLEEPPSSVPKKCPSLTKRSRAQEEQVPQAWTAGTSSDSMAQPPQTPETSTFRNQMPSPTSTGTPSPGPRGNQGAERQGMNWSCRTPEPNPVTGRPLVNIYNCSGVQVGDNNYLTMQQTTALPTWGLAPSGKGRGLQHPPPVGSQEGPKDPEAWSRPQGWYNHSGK
Chain of human RIPK1 (Q13546 whole entry): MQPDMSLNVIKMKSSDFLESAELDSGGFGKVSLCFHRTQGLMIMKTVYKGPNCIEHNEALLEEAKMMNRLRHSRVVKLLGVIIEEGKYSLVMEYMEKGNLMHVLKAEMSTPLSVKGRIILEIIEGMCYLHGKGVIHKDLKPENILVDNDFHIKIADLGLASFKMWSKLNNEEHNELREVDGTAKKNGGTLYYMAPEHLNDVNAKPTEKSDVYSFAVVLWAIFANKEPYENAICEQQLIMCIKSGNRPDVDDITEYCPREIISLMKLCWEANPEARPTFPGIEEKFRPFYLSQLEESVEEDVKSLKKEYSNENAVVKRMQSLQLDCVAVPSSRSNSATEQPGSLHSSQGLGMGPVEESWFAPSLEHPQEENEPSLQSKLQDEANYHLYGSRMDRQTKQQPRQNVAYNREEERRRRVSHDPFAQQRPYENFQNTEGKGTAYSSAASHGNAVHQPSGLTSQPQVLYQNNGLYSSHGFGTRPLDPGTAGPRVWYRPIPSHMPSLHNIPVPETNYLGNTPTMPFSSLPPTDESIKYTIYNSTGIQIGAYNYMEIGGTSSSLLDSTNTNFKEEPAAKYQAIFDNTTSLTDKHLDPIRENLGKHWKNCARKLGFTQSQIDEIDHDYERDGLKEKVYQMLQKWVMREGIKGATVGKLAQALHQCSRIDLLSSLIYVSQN

As for `COC[C@@H](Oc1cc(-c2nn(C)c3c(-c4cnn(C5CCOCC5)c4)cnc(N)c23)ccc1NS(=O)(=O)C(F)F)c1ccc(F)cc1` [Compound 112, (S)—N-(4-(4-amino-1-methyl-7-(1-(tetrahydro-2H-pyran-4-yl)-1H-pyrazol-4-yl)-1H-pyrazolo[4,3-c]pyridin-3-yl)-2-(1-(4-fluorophenyl)-2-methoxyethoxy)phenyl)-1,1-difluoromethanesulfonamide], the Kd on human RIPK3 and on human RIPK1 was more than 10 µM each time.
Consider `COc1cc(-c2cnc(N)c3c(-c4ccc(NS(=O)(=O)C(F)F)c(O[C@@H](C)c5ccc(F)cc5)c4)nn(C)c23)ccn1` [Compound 27, (S)-N-(4-(4-amino-7-(2-methoxypyridin-4-yl)-1-methyl-1H-pyrazolo[4,3-c]pyridin-3-yl)-2-(1-(4-fluorophenyl)ethoxy)phenyl)-1,1-difluoromethanesulfonamide], for which the Kd on human RIPK3 and at human RIPK1 was more than 10 µM each time.
For the compound `C[C@H](Oc1cc(-c2nn(C)c3c(-c4ccnc(C(F)(F)F)c4)cnc(N)c23)ccc1NS(=O)(=O)C(F)F)c1ccc(F)cc1` [Compound 23, (S)-N-(4-(4-amino-1-methyl-7-(2-(trifluoromethyl)pyridin-4-yl)-1H-pyrazolo[4,3-c]pyridin-3-yl)-2-(1-(4-fluorophenyl)ethoxy)phenyl)-1,1-difluoromethanesulfonamide], the Kd on human RIPK3 and at human RIPK1 was more than 10 µM in each case.
Turning to `Cn1nc(-c2ccc(NS(=O)(=O)C(F)F)c(OCc3ccc(F)cc3)c2)c2c(N)nccc21` [Compound 10, N-(4-{4-amino-1-methyl-1H-pyrazolo[4,3-c]pyridin-3-yl}-2-[(4-fluorophenyl)methoxy]phenyl)-1,1-difluoromethanesulfonamide], the Kd on human RIPK3 and at human RIPK1 was more than 10 µM in each case.
`C[C@H](Oc1cc(-c2nn(C)c3c(-c4cnn(C5CC6(C5)CN(C)C6)c4)cnc(N)c23)ccc1NS(=O)(=O)C(F)F)c1ccc(F)cc1` [Compound 99, (S)-N-(4-(4-amino-1-methyl-7-(1-(2-methyl-2-azaspiro[3.3]heptan-6-yl)-1H-pyrazol-4-yl)-1H-pyrazolo[4,3-c]pyridin-3-yl)-2-(1-(4-fluorophenyl)eth-oxy)phenyl)-1,1-difluoromethane-sulfonamide]: the Kd at human RIPK3 and on human RIPK1 was more than 10 µM each time.
For `C[C@H](Oc1cc(-c2nn(C)c3c(-c4cnn(C5CCOCC5)c4)cnc(N)c23)ccc1NS(=O)(=O)N(C)C)c1ccc(F)cc1` [Compound 124], the Kd at human RIPK3 and on human RIPK1 was more than 10 µM throughout.
As for `C[C@H](Oc1cc(-c2nn(C)c3c(-c4cnn(C5CCN(C)C6(CC6)C5)c4)cnc(N)c23)ccc1NS(=O)(=O)C(F)F)c1ccc(F)cc1` (stereo partly drawn) [Compound 145, N-(4-(4-amino-1-methyl-7-(1-(4-methyl-4-azaspiro[2.5]octan-7-yl)-1H-pyrazol-4-yl)-1H-pyrazolo[4,3-c]pyridin-3-yl)-2-((S)-1-(4-fluorophenyl)ethoxy)phenyl)-1,1-difluoromethanesulfonamide], the Kd on human RIPK3 and on human RIPK1 was more than 10 µM each time.
As for `C[C@H](Oc1cc(-c2nn(C)c3c(-c4cnn(C5CCC(F)(F)CC5)c4)cnc(N)c23)ccc1NS(=O)(=O)C(F)F)c1ccc(F)cc1` [Compound 146, (S)-N-(4-(4-amino-7-(1-(4,4-difluorocyclohexyl)-1H-pyrazol-4-yl)-1-methyl-1H-pyrazolo[4,3-c]pyridin-3-yl)-2-(1-(4-fluorophenyl)ethoxy)phenyl)-1,1-difluoromethanesulfonamide], the Kd on human RIPK3 and at human RIPK1 was more than 10 µM in each case.
In the case of `C[C@H](Oc1cc(-c2nn(C)c3c(-c4cnn(C5CCC(F)(F)C5)c4)cnc(N)c23)ccc1NS(=O)(=O)C(F)F)c1ccc(F)cc1` (stereo partly drawn) [Compound 120, N-(4-{4-amino-7-[1-(3,3-difluorocyclopentyl)-1H-pyrazol-4-yl]-1-methyl-1H-pyrazolo[4,3-c]pyridin-3-yl}-2-[(1S)-1-(4-fluorophenyl)ethoxy]phenyl)-1,1-difluoromethanesulfonamide], the Kd at human RIPK3 and on human RIPK1 was more than 10 µM throughout.
